Assay results: US20210177814A1, “USE OF GUANABENZ OR DERIVATES THEREOF FOR THE TREATMENT OF TYPE I IFN-DEPENDENT PATHOLOGIES” (INSERM (Institut National de la Santé et de la Recherche …, priority 2018, published 2021)

Target: T1, hTLR3 (Homo sapiens, UniProt O15455)
T1 construct: expressed in transfected cells; host or cells: HEK-Blue (HEK 293) hTLR3 reporter cells
T1 sequence (O15455 24-904): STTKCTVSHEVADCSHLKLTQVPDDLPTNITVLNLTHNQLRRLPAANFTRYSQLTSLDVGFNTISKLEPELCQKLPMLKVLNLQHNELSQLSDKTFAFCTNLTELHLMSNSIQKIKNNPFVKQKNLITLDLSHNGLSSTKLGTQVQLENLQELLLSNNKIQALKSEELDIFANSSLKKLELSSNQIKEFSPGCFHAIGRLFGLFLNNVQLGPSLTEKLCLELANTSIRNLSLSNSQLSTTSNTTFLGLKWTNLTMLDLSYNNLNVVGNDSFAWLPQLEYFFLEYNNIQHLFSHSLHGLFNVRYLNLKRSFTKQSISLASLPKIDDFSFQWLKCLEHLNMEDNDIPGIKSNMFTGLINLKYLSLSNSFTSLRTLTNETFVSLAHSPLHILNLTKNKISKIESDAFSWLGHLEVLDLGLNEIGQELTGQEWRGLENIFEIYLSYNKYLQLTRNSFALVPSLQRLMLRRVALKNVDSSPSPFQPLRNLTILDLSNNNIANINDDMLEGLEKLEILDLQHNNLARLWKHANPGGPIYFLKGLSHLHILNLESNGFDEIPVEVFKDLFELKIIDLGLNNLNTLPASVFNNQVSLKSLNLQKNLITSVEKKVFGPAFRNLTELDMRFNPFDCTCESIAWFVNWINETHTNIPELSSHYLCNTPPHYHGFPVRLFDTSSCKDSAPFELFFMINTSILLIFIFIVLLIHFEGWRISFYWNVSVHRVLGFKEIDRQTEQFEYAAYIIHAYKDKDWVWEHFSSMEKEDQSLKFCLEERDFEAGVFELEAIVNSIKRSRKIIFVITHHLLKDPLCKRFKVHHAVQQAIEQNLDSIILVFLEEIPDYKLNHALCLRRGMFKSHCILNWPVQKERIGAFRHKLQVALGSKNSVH
Assay: HEK-Blue hTLR3 SEAP reporter assay
Type: cell-based
Settings: 10 μg/mL poly I:C LMW, GBZ 50 μM
Protocol: FIG. 1: Guanabenz inhibits TLR3 and TLR9 activation in mouse Flt3-L DCs and human blood pDCs. A) Sorted bone marrow derived Flt3L-DCs were activated for 6 h with 10 μg/mL poly I:C LMW (TLR3 in DC1) or 1 μM ODN 1585 (TLR9 in pDCs). GBZ was added at 50 μM and inhibited IFN-β and Interleukin-6 (IL-6) production in activated cells. B) hTLR4, hTLR3, hTLR9 and hTLR7 expressed in the reporter HEK-Blue™ cells are inhibited by GBZ. TLR-expressing HEK-Blue™ cells were respectively activated with 100 ng/mL LPS, 10 μg/mL poly I:C LMW, 2.5 μM ODN 2006 or 5 μg/mL imiquimod, respectively. GBZ was added at 50 μM. TLR activity was measured indirectly through SEAP activity as absorbance at 405 nm. […] Protein concentration of IFN-α and TNF-α secreted were measured at the indicated time points or at 16 h. […]
Given the efficiency of GBZ on mouse TLR3 and TLR9, we turned to human TLRs, in order to extend the relevance of our observations. GBZ-mediated inhibition was first evaluated on NF-kB signaling by monitoring secreted alkaline phosphatase (SEAP) reporter levels in HEK-293 cells expressing TLR3, TLR4, TLR7, TLR9 (FIG. 1B). […] The functionality of the TLR9 transduction pathway was next evaluated by using phospho-flow detection of 40S ribosomal protein S6 (rpS6) phosphorylation, a well characterized early signaling event down-stream of TLR activation by LPS or viruses.

SMILES: NC(N)=N/N=C/c1c(Cl)cccc1Cl [GBZ, 2-(2,6-dichlorobenzylidene)-hydrazinecarboximidamide]
- TLR3-dependent activation of the SEAP reporter: inhibited
